Experimental data: patent publication US5438073A, “Dermatological and/or cosmetological composition containing retinoids” (Pierre Fabre Cosmetique, priority 1991, dated 1995)
Like-named read-outs stand apart in the source and are kept apart here. Values belong to the compound of their own block, whether it stands above or below them.

Legend:
[1] = tested on: cytosol extracts of human keratinocytes; conditions: human epidermal cells; specific inhibitors of alcohol metabolism or excess of ethanol
Experimental: We have measured the conversion of retinol to retinoic acid. We have also measured the enzymatic oxidation-reduction of retinal in human epidermal cell extracts in vitro (HPLC analysis of the products obtained by incubation of cytosol extracts with ^3 H-labeled RAL and ROL).
(§1) The HPLC analyses of the retinoids are carried out by the following technique:
(§2) A 100 μl aliquot of the cytosol fraction of keratinocytes is incubated with 600 μM (^3 H) retinol or (^3 H) retinal for 1 hour.
(§3) 5 μl of internal standard solution containing 4-oxoretinoic acid, all-trans-retinoic acid, 13-cis-retinoic acid, retinol and retinal are subsequently added to the reaction medium.
(§4) The radioactive material is then extracted with 3×1 ml of hexane.
(§5) The organic phase is collected and completely evaporated using a stream of nitrogen gas.
(§6) The residue is subsequently taken up in 50 μl of acetonitrile and analysed on an HPLC column.
(§7) The HPLC system consists of a VARIAN 5000 apparatus equipped with an ODS-Ultrasyl reverse-phase column (10 μm, 25×0.4 cm).
(§8) The unlabeled retinoids are detected by their absorbance measured at 340 nm. 600 μl fractions are also collected using a fraction collector, and their radio-activity is measured with a scintillation counter after adding 4 ml of Pico-fluor.

[2] = tested on: extracts of normal human skin and of the psoriasis plaque
Experimental: (§9) We have also measured the enzymatic oxidation-reduction of retinal in human epidermal cell extracts in vitro (HPLC analysis of the products obtained by incubation of cytosol extracts with ^3 H-labeled RAL and ROL).
as §1, §2, §3, §4, §5, §6, §7
(§10) The isocratic elution system consists of a mixture of solvents composed of 71% acetonitrile, 23% of ammonium acetate buffer (50 mM, pH 7) and 6% tetrahydrofuran, with a flow rate of 2.4 ml/min.
as §8

[3] = tested on: human epidermal cell extracts
Experimental: as §9, §1, §2, §3, §4, §5, §6, §7, §10, §8

[4] = tested on: rosacea; assay: application in the case of rosacea; format: in vivo, human; conditions: 0.1% retinal, topical, daily
Experimental: This test was carried out on 10 subjects displaying the clinical signs of rosacea. A topical application containing 0.1% of retinal was used in daily application for 3 months.

[5] = tested on: psoriasis plaques; conditions: for regression of the lesion score: with occlusion
Experimental: For this reason, the 1% preparation was used and the effects of a daily application were compared with those of the excipient, in 12 patients.
The application was "open" in 6 cases, and with occlusion in six 6. 11 cases were able to be evaluated (5 with occlusion, 6 open). The effect was measured by standard methods (erythema 0-3, squama 0-3, infiltration 0-3), comparing the plaques treated with retinal with the symmetrical plaques treated with the excipients. Photographs were taken at each inspection.

[6] = tested on: seborrheic dermatitis; assay: application in the case of seborrheic dermatitis; format: in vivo, human; conditions: 0.05% retinal, topical, daily; after treatment for one month
Experimental: This test was carried out on 10 subjects displaying the clinical signs of seborrheic dermatitis.
A topical application containing 0.05% of retinal was used in daily application for one month.

[7] = tested on: normal human skin
Source text: This test, carried out on 30 healthy volunteers, was intended to evaluate the existance of a biological effect and the tolerance after topical application of retinal.
Three concentrations, 1.0%, 0.1% and 0.05%, were used, in daily covered applications for at least 15 days and up to 3 months in 10 subjects.

[8] = tested on: normal human skin; conditions: topically applied; cited from earlier work
[9] = tested on: protein extract of psoriasis plaques / cytosol extracts of normal human skin; format: in vitro ADME
Source text: Furthermore, the Applicant has shown that the protein extract of psoriasis plaques was also capable of converting retinol to retinoic acid, but with a lower activity (0.33+0.07 pmol/h/mg) than differentiated keratinocytes.
These differences in the conversion activity may be attributed to the differences in biological activity of the tissues studied or to their different state of differentiation.

SMILES: Cc1cn[nH]c1 [4-methylpyrazole]
effect on the production of retinoic acid from retinol [1]: not affected

SMILES: CCN(CC)C(=S)SSC(=S)N(CC)CC [disulfiram]
effect on the production of retinoic acid from retinol [1]: not affected

SMILES: CCO [ethanol]
effect on the production of retinoic acid from retinol [1]: not affected

oxidation of retinal to retinoic acid [2]: 1.35 ± 0.4 pmol/h/mg | oxidation of retinal [3]: 51.6 pmol/h/mg | skin coloration induced ([7]; in vivo): yellowish coloration
SMILES: CC1=C(/C=C/C(C)=C/C=C/C(C)=C/C=O)C(C)(C)CCC1 [retinal]
subjects left with almost no sign of characteristic erythrosis of rosacea ([4]; after treatment for 3 months): 70% | cases with a substantial improvement in the rosacea ([4]; from the first month, 10 subjects): 6 of the 10 | effect on psoriasis plaques ([5]; 0.1% and 0.05% preparations, initial pilot study): only a modest effect | effect on the action of UVA ([5]; 0.1% and 0.05% preparations, psoriasis plaques): potentiating effect | results in the open series ([5]; 1% preparation, daily, open application, 6 cases): only one very good result was noted, with one good and four modest results | regression of the lesion score ([5]; 1% preparation, daily, 3 of the 5 cases, from the first week): more than 50% | regression of the lesion score ([5]; 1% preparation, daily, one case (good result)): 30% | regression of the lesion score ([5]; 1% preparation, daily, one case (modest result)): 10% | local reaction on the psoriasis plaque ([5]; in vivo): inflammation specifically localized on the psoriasis plaque | subjects left with almost no characteristic signs of seborrheic dermatitis [6]: 80% | biological effect on normal skin ([7]; 0.1% and 0.05% preparations, topical, healthy volunteers): better appearance of the skin | cases in which an irritation arose ([7]; in vivo): 10% | irritation / dermatitis caused by the retinoids ([7]; in vivo): no irritation was noted | tolerability ([7]; in vivo): excellent

SMILES: CC1=C(/C=C/C(C)=C/C=C/C(C)=C/C(=O)O)C(C)(C)CCC1 [retinoic acid]
topical concentration at which dermatitis caused by the retinoids is observed [8]: ≥ 0.01%

activity of converting retinol to retinoic acid [9]: 0.33+0.07 pmol/h/mg | conversion of retinol to retinoic acid [9]: no measurable degree of conversion
SMILES: CC1=C(/C=C/C(C)=C/C=C/C(C)=C/CO)C(C)(C)CCC1 [retinol]
